≈ marks a conversion by molar mass, not a printed value.
How the values were obtained:
[1] = test system: Escherichia coli R477-100; assay: Antibacterial activity, MIC by double-microdilution method; assay type: cell-based; conditions: Table 2, Escherichia coli R477-100, without DTT; for MIC: R477100, read-out: Gram-negative MIC a
[2] = test system: Escherichia coli 25922; assay: as above; assay type: cell-based; conditions: Table 2, Escherichia coli 25922; for MIC: read-out: Gram-negative MIC b
[3] = test system: Staphylococcus Epidermidis; assay: as above; assay type: cell-based; conditions: for MIC: Table 2, read-out: Gram-positive MIC c
[4] = test system: Bacillus Subtilis; assay: as above; assay type: cell-based; conditions: Table 2, Bacillus Subtilis; for MIC: read-out: Gram-positive MIC d
[5] = target: T1, E. coli DNA gyrase (Escherichia coli, UniProt P0AES4+P0AES6); assay: E. coli Gyrase-DNA supercoiling assay; assay type: biochemical; conditions: supercoiling of relaxed pHOT-1 plasmid in presence of ATP; 37° C., 60 minutes
T1 construct: purchased TopoGEN
Method: The DNA supercoiling reactions were based on the manufacturer protocol (TopoGEN). The amount of DNA gyrase used in each assay was optimized by testing various dilutions of the stock. The amount sufficient to supercoil 250 nanograms (ng) of the substrate in 1 hour at 37° C. was then used for testing the compounds (1.1 U as defined by manufacturer). Assays (30 μL) contained 250 nanograms of relaxed pHOT1 plasmid DNA in Tris-HCl buffer (35 mM), pH 7.5, containing KCl (24 mM), MgCl2 (4 mM), DTT (2 mM), Spermidine (1.8 mM), ATP (1 mM), 6.5% (w/v) glycerol and bovine serum albumin (0.1 mg/ml). Reactions were incubated at 37° C. for 60 minutes. Reaction mixtures were stopped by the addition of 30 μL of loading buffer (40% sucrose, 100 mM Tris·HCl (pH 7.5), 1 mM EDTA, 0.5 mg×mL^−1 bromophenol blue) and worked up using 30 μL of 24:1 chloroform/isoamyl alcohol mixture; the aqueous layer was then analyzed using electrophoresis.
Electrophoresis, gel staining, DNA visualization and DNA quantification were performed as described for the DNA cleavage assays.

[6] = test system: supercoiled (+) pHOT-1 plasmid DNA; assay: DNA cleavage assay (gel electrophoresis); assay type: biochemical
Method: Removal of Ligands Prior to Electrophoresis was performed when more than 100 μM of Cu(II)-ligand or Co(III) ligand (at any concentration) complexes were employed that is, for DNA cleavage assays that were performed in the absence of any adjuvants. An Amberlyst® 15 (Sigma Aldrich) ion-exchange resin was prepared according to the reported literature [Hettich et al. J. Am. Chem. Soc. 1997, 119 (24), 5638-5647] and stored at −20° C. Before use, 0.5 gram of the exchanger was mixed with 250 μL of water. After stopping the DNA-cleavage reaction by addition of EDTA (54 mM, 15 minutes incubation at 37° C.), 10 μL of the exchanger suspension was added, vortexed, and incubated at 37° C. for 15 minutes before centrifugation and electrophoresis.
DNA cleavage activity of the tested Complexes towards supercoiled (+) pHOT-1 plasmid DNA (TopoGEN) was monitored by gel electrophoresis. In a typical experiment, plasmid DNA (200 ng, […]) in HEPES buffer (50 mM, pH 7.4) was mixed with different concentrations of a tested metal complex in the presence or absence of ascorbic acid (0.32 mM). All stock solutions of buffers and of the metal complexes were prepared using HPLC grade water (ChromAR®). Molecular biology reagent grade water (Sigma) was added up to a total reaction volume of 30 μL before incubation for a given time. For the ascorbic acid assays, the reaction was quenched immediately after incubation with EDTA (54 mM). For analysis, 10 μL of loading buffer (40% sucrose, 100 mM Tris-HCl (pH 7.5), 1 mM EDTA, 0.5 mg·mL^−1 bromophenol blue) was added to the incubated solution and loaded onto an agarose (SeaKem LE) gel [1% in TAE×1 buffer (40 mM Tris, 20 mM acetic acid, 1 mM EDTA)]. Electrophoresis was carried out at 60 V for 2 hours. Gels were stained with 1 μg·mL^−1 ethidium bromide for 30 minutes and de-stained in TAE×1 buffer. DNA bands were visualized with medium-range ultraviolet light using Bio-Rad Gel Doc XR+ imaging system. The quantity of different DNA forms (I or II) was estimated using ImageJ software.
Chem. 2015, 2015 (28), 4722-4730; Kashiba-Iwatsuki et al. FEBS Lett. 1996, 389 (2), 149-15].
The copper complex of compound 2 (2-Cu(II)) was used as the positive control in these assays.

[7] = test system: supercoiled (+) pHOT-1 plasmid DNA; assay: DNA cleavage assay (gel electrophoresis); assay type: biochemical; remark: listed apart in the source
[8] = test system: Gram-negative and Gram-positive bacteria; assay: Comparative antibacterial activity, all tested bacteria; assay type: cell-based; conditions: MIC, Table 2 and 3
Method: Comparative antibacterial activities were determined by measuring the MIC values by using the double-microdilution method according to the National Committee for Clinical Laboratory Standards (NCCLS). The Luria-Bertani growth medium and polypropylene 96-well plates (Thermo) were used unless otherwise stated. All the experiments were performed in triplicate, and analogous results were obtained in three different experiments.
Compounds 1-6 and their Cu(II) and Co(III) complexes, as well as the pendant-bearing compounds 19-23 and 26 were tested for their comparative antibacterial activity by determining MIC values against two Gram-negative E. coli strains (AR477-100 and 25922) and two Gram-positive strains, Staphylococcus Epidermidis, and Bacillus Subtilis.

T1 sequence (P0AES4 whole entry, one chain of several): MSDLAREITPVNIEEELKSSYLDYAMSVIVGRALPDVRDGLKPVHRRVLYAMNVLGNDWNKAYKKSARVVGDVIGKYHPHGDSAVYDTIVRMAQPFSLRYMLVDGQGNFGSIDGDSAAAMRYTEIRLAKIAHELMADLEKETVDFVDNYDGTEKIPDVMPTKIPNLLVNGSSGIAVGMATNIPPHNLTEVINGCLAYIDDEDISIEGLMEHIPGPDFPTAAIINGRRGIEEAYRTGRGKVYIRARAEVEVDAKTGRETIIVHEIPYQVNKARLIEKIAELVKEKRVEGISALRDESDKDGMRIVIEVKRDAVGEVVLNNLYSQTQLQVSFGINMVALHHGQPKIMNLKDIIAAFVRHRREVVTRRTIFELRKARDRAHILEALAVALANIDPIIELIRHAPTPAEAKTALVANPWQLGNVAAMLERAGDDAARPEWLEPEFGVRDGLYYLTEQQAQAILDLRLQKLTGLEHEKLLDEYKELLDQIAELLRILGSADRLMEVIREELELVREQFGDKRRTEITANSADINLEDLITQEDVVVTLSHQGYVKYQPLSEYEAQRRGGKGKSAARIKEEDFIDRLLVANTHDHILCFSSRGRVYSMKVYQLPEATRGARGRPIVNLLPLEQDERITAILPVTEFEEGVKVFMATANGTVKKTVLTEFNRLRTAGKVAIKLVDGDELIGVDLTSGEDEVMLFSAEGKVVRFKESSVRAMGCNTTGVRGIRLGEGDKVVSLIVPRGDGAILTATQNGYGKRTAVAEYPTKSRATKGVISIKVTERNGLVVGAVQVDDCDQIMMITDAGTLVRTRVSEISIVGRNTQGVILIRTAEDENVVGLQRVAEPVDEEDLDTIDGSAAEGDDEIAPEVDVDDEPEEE

Compound | IC50 [5] | MIC [1] | MIC [2] | MIC [3] | MIC [4] | antibacterial activity (in words) [8] | other results
O.O=C(O)c1cn(C2CC2)c2cc(N3CCN(Cc4ccc(CCN5CCNCCNCCNCC5)cc4)CC3)c(F)cc2c1=O.[Cu+2] [5-Cu(II)] | 180 ± 30 nM |  |  |  |  |  | Gram-negative MIC a [1]: 6 µg/mL; Gram-negative MIC b [2]: 6 µg/mL; Gram-positive MIC c ([3]; Table 2): 6 µg/mL; Gram-positive MIC d [4]: 3 µg/mL; DNase activity (cleavage of supercoiled plasmid, form I to form II) ([6]; absence of adjuvants, HEPES buffer (50 mM, pH 7.4), 5 hours): significant cleavage enhancement even in relation to the activity of 1-Cu(II) and 4-Cu(II); effect of NaN3 on cleavage ([6]; ascorbic acid (0.32 mM), complex 0.01 mM, scavenger 10 mM, 2 hours): no inhibition whatsoever; effect of hydroxyl radical scavengers DMSO and t-BuOH on cleavage ([6]; no adjuvants, complex 0.5 mM, scavengers 10 mM, 5 hours): no significant inhibitory effect; oxidative cleavage activity in Tris buffer with DTT ([7]; Tris-HCl buffer (35 mM, pH 7.5), DTT (2 mM), complex 0.5 mM, 2.5 hours): retain significant oxidative cleavage activity; hydrolytic DNA cleavage in presence of Tris-buffer or spermidine ([7]; complex 0.5 mM, 2.5 hours): inhibit the hydrolytic DNA cleavage of plasmid DNA
C1CNCCNCCNCCN1.O.[Co+3].[OH-] [Co(III)-cyclen, reference compound] |  |  |  |  |  |  | DNase activity at micromolar concentrations ([6]; FIG. 32: 0.2 μg DNA over 2 hours (Co(III)-cyclen, 4-Co(III)), 0.6 μg DNA over 10 hours (23-Co(III))): inactive; effect of Co(III) complexes on plasmid DNA ([6]; absence of adjuvants, HEPES pH 7.4, 0.5 hours, micromolar concentrations): no effect whatsoever; DNase activity in TRIS buffer with ATP ([7]; 50 mM TRIS buffer, 1.8 mM ATP): not inhibited by ATP; DNase activity in TRIS buffer with glutamate ([7]; 50 mM TRIS buffer, 100 mM potassium glutamate): very strongly inhibited by glutamate
O=C(O)c1cn(C2CC2)c2cc(N3CCN(Cc4ccc(CCN5CCNCCNCCNCC5)cc4)CC3)c(F)cc2c1=O [Compound 5] | 150 ± 40 nM | 6 µg/mL (≈ 9.68 µM) | 3 µg/mL (≈ 4.84 µM) | 3 µg/mL (≈ 4.84 µM) | 3 µg/mL (≈ 4.84 µM) | slightly higher activity | 
O=C(O)c1cn(C2CC2)c2cc(N3CCN(Cc4ccc(CCCN5CCNCCNCCNCC5)cc4)CC3)c(F)cc2c1=O [Compound 6] | 70 ± 20 nM | 3 µg/mL (≈ 4.73 µM) | 1.5 µg/mL (≈ 2.37 µM) | 1.5 µg/mL (≈ 2.37 µM) | 3 µg/mL (≈ 4.73 µM) | slightly higher activity | 

From patent publication US20230357189A1, “MODIFIED FLUOROQUINOLONES AND USES THEREOF” (Technion Research & Development Foundation Limited, priority 2021, published 2023)
